Literature values as cited in patent publication US20120171239A1, “Immunogenic Conjugates for Producing Immune Responses to Drugs of Abuse and Methods of Use” (priority 2009, published 2012).

Tested on: D2
Conditions: i.v. injection of 1.0 mg/kg cocaine, PET

COC(=O)[C@H]1[C@@H](OC(=O)c2ccccc2)C[C@@H]2CC[C@H]1N2C [cocaine]
reduction of FCP uptake: ≤ 40%
